Experimental data: ChEMBL document CHEMBL1201862, “PubChem BioAssay data set” (2004)
Active and inactive are the calls of the source.

Assays:
[1] = HGIII-sPLA2 enzyme inhibition potency – biochemical, QFRET, IC50, dose response (AID 743457);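 note: green fluorescence rise as the enzyme cleaves BODIPY PC-A2 in liposomes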
[2] = biological target: T1, Trace amine-associated receptor 1 (Homo sapiens, UniProt Q96RJ0); test: Counterscreen for antagonists of the human trace amine associated receptor 1 (hTAAR1): Fluorescence-based cell-based high throughput dose response assay to identify TAAR1 Agonists.; type: functional
T1 sequence (Q96RJ0 whole entry): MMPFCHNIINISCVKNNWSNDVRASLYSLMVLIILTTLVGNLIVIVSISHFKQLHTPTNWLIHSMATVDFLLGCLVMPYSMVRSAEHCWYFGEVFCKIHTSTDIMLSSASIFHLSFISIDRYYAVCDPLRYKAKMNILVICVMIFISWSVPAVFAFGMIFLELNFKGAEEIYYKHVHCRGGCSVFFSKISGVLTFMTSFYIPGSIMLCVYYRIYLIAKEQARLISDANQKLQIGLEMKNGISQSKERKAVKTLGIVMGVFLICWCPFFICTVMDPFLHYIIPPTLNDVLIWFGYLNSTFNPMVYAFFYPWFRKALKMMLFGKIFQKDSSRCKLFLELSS

[3] = NIH3T3 cell viability loss – ATP luminescence, mouse fibroblasts, counter-screen, dose response (AID 2010); type: functional, cell-based;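 note: cells exposed to compound for about 90 hours before reading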
[4] = Trypanosoma cruzi growth suppression in host cells – NIH3T3 host cells, beta-gal luminescence, confirmation (AID 2044); type: functional, cell-based;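 note: intracellular parasites grown in NIH/3T3 mouse fibroblasts as host cells; luminescent beta-galactosidase reporter signal from transgenic T. cruzi replicating inside host cells; inhibitors lower the luminescence signal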
[5] = Counterscreen for […] of the human trace amine associated receptor 1 (TAAR1): Fluorescence-based cell-based high throughput dose response assay to identify nonselective Ga16 agonists.; type: functional
[6] = Counterscreen for antagonists of the human trace amine associated receptor 1 (hTAAR1): Fluorescence-based cell-based high throughput dose response assay to identify nonselective Ga16 antagonists.; type: functional
[7] = biological target: T1, Trace amine-associated receptor 1; test: Fluorescence-based cell-based high throughput dose response assay to identify antagonists of the human trace amine associated receptor 1 (TAAR1).; type: functional
[8] = biological target: SWI/SNF-related matrix-associated actin-dependent regulator of chromatin subfamily A member 2 (Homo sapiens, UniProt P51531); test: Luminescence-based cell-based high throughput dose response assay to identify activators of the function of SWI/SNF related, matrix associated, actin dependent regulator of chromatin, subfamily a, member 2 (SMARCA2, BRM).; type: functional
[9] = Counterscreen for activators of the function of SWI/SNF related, matrix associated, actin dependent regulator of chromatin, subfamily a, member 2 (SMARCA2, BRM): Luminescence-based cell-based high throughput dose response assay to identify non-selective compounds using the VP16 reporter assay.; type: functional
[10] = biological target: T2, Short transient receptor potential channel 4 (Mus musculus, UniProt Q9QUQ5); test: block of DAMGO-driven TRPC4 calcium entry – cell-based, HEK293 TRPC4/mu-opioid, Fluo-4 calcium, dose response (AID 434942); type: functional;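 note: potency of inhibitors blocking the TRPC4 calcium response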
T2 sequence (Q9QUQ5 whole entry): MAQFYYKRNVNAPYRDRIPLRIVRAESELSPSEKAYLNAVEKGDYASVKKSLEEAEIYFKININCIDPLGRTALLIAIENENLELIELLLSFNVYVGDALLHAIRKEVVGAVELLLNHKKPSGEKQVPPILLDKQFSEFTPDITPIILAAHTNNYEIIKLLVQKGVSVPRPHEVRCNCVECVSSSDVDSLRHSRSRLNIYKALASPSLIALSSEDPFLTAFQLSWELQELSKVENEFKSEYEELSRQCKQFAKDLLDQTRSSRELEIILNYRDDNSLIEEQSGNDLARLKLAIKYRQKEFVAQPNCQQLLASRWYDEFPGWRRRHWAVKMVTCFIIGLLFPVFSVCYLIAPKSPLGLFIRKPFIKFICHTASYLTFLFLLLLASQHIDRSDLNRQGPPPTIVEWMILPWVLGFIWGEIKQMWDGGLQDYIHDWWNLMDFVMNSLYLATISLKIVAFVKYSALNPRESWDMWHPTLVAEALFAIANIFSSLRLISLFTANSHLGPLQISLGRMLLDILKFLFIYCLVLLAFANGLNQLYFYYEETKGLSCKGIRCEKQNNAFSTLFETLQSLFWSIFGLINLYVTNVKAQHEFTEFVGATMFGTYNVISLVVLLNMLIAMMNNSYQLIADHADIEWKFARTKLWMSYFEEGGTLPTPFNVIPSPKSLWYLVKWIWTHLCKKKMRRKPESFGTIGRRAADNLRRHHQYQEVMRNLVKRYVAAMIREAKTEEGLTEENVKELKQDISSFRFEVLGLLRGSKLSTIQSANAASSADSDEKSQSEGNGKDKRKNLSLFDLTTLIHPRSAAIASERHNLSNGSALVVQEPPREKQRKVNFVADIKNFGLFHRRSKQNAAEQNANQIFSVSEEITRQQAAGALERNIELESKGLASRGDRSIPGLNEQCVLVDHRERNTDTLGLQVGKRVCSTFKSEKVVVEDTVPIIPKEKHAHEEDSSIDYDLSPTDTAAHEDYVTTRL

[11] = general mammalian cell viability loss – inhibitor set, cherry-pick, set 2, cytotoxicity control for miR-122 modulator project, dose response (AID 720697); type: functional, cell-based
Caspase-3 = biological target: T3, Caspase-3 (Homo sapiens, UniProt P42574); test: Dose-response confirmation of uHTS inhibitor hits of Sentrin-Specific Protease 8 in a Caspase-3 Fluorescence assay.; type: functional
T3 sequence (P42574 whole entry): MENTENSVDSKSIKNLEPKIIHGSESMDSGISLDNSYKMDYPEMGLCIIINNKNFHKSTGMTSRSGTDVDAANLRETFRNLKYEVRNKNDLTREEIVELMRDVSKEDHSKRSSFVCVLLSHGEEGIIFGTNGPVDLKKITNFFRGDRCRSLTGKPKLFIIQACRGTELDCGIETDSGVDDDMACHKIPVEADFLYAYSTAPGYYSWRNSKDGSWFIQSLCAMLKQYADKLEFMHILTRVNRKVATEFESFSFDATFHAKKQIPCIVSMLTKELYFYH

[12] = biological target: T4, Sentrin-specific protease 8 (Homo sapiens, UniProt Q96LD8); type: functional
T4 sequence (Q96LD8 whole entry): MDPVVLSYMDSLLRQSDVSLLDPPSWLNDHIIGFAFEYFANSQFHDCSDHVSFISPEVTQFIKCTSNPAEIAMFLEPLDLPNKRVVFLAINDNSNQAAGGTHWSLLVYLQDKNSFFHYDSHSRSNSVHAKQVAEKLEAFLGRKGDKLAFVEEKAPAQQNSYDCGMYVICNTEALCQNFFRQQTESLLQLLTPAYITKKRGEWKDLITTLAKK

[13] = biological target: T5, Polyadenylate-binding protein 1 (Homo sapiens, UniProt P11940); test: MLLE domain peptide-binding blockers, IC50 – biochemical, fluorescence polarization, FITC-PAM2 peptide, dose response (AID 602259); type: functional; conditions: read-out: IC50_Mean
[14] = biological target: T5, Polyadenylate-binding protein 1; test: MLLE binding blockers, Cy5 peptide tracer – biochemical, fluorescence polarization, Cy5-PAM2 peptide, secondary, miRNA deadenylation inhibitor project, dose response (AID 602260); type: functional; conditions: read-out: IC50_Mean
[15] = biological target: T4, Sentrin-specific protease 8; type: functional; remark: listed apart in the source
P388/ADR = test: cells; type: functional; conditions: Mus musculus
SN12K1 = test: cells; type: functional; conditions: Homo sapiens
[16] = cytotoxicity in untransfected HEK293T cells – cell-based, CellTiter-Glo luminescence, dry powder, counter-screen for EBV LMP1 inhibitor project, dose response (AID 624372); type: functional, HEK293
P388 = test: cells; type: functional; conditions: Mus musculus
[17] = biological target: T6, Corticotropin-releasing factor receptor 2/Corticotropin-releasing factor-binding protein (Homo sapiens, UniProt P24387+Q13324); test: Dose Response confirmation of uHTS hits for small molecule antagonists of the CRF-binding protein and CRF-R2 receptor complex.; type: functional; conditions: read-out: IC50_Mean
T6 sequence (Q13324 whole entry): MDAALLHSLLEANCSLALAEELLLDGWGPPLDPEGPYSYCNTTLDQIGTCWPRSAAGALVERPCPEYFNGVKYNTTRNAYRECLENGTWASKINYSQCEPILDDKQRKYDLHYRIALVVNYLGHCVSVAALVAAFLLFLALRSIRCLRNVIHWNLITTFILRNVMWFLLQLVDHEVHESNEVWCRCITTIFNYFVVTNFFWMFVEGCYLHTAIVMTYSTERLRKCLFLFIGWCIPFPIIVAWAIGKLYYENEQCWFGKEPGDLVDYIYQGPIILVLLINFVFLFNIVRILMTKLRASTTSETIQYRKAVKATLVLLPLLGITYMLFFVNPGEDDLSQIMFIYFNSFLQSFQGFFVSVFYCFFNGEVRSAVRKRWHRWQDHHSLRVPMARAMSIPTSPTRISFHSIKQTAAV
T6 sequence (P24387 whole entry): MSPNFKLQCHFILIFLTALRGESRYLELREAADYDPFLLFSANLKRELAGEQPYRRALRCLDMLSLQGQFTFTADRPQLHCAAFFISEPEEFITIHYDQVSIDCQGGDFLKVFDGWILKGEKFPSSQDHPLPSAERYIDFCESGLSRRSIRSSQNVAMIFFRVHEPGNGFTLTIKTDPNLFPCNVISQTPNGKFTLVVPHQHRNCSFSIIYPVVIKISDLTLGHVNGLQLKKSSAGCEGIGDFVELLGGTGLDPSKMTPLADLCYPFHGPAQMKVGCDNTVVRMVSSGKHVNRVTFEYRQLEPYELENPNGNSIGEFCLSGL

[18] = blockers of CRF-binding protein–CRF-R2 complex – cell-based, uHTS hits, 384-well, dose response (AID 651639); type: functional, Homo sapiens; conditions: read-out: IC50_Mean
[19] = biological target: T6, Corticotropin-releasing factor receptor 2/Corticotropin-releasing factor-binding protein; test: activators of CRF receptor 2 with binding protein – uHTS hits, confirmation (AID 602473); type: functional; conditions: read-out: EC50_Mean

T5 sequence (P11940 whole entry, the tested form may be a part): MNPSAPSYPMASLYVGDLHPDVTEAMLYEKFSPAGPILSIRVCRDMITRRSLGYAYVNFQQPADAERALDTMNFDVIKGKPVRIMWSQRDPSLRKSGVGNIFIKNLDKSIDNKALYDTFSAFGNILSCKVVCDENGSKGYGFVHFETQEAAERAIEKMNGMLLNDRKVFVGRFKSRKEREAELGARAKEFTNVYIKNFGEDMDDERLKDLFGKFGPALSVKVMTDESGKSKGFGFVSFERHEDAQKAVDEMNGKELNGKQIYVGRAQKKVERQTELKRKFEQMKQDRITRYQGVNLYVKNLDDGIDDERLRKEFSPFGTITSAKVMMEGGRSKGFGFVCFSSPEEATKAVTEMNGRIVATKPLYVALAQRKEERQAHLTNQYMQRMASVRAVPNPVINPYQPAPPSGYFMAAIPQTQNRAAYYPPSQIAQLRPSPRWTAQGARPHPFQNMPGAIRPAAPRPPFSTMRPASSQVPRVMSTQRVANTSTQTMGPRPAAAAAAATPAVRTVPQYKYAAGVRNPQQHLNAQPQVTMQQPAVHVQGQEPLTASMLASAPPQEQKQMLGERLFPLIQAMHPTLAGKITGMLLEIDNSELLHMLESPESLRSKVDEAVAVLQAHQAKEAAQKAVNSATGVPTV
Sequence of SWI/SNF-related matrix-associated actin-dependent regulator of chromatin subfamily A member 2 (P51531 whole entry): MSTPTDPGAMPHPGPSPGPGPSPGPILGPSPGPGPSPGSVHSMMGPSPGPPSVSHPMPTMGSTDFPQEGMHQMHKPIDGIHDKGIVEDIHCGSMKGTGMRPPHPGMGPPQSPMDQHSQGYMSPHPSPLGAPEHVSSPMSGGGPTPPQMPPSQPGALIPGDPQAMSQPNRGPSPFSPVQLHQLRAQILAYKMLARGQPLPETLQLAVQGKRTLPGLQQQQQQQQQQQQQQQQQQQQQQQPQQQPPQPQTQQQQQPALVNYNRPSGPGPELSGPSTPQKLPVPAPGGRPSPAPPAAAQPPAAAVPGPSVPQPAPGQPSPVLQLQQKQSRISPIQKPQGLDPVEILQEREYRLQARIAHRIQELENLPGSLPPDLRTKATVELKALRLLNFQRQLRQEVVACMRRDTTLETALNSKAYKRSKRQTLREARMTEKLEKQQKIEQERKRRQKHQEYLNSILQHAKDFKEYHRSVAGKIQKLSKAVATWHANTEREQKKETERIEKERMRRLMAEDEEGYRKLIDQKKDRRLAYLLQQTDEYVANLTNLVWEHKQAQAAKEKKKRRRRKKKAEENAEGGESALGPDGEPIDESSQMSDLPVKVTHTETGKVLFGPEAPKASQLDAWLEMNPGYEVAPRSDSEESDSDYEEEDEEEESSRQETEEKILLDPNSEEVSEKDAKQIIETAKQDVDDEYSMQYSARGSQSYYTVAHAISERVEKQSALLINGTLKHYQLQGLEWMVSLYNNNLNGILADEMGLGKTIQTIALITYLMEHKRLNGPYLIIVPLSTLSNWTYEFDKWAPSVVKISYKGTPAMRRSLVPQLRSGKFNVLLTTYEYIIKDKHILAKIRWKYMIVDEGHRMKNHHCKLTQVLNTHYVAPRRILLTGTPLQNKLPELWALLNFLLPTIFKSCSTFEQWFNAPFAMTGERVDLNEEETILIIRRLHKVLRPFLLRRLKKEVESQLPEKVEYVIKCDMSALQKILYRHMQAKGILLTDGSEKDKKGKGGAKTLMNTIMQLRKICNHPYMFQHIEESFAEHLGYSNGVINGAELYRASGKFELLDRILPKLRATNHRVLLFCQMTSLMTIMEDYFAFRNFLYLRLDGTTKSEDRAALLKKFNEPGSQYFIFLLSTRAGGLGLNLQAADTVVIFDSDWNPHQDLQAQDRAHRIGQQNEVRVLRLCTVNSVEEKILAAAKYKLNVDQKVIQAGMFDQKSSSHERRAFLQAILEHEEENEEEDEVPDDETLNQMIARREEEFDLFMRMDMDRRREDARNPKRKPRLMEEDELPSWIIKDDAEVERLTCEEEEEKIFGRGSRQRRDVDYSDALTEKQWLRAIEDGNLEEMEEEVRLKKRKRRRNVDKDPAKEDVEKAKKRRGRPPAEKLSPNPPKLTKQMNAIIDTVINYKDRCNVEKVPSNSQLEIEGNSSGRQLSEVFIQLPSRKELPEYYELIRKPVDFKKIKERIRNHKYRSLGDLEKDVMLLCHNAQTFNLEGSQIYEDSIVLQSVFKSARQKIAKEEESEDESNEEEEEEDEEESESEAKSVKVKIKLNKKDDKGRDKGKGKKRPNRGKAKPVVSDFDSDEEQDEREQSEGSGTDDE

## Cc1cccc(NC(=O)NNC(=O)c2ccc3ccccc3c2O)c1
[1]
  IC50: > 122 µM (inactive)

## CN(CC(=O)Nc1cccc(F)c1)C(=O)c1ccccc1OCC(=O)Nc1cccc(C(F)(F)F)c1
[2]
  EC50: > 29.9 µM (inactive)
[3]
  EC50: > 60 µM (not active)
[4]
  EC50: 0.775 µM (active)
[5]
  EC50: > 29.9 µM (inactive)
[6]
  IC50: 13.5 µM (inactive)
[7]
  IC50: 6.89 µM (active)

## Cn1cc(-c2nc3ccccc3[nH]2)c2ccccc21
[8]
  EC50: > 91.2 µM (inactive)
[9]
  EC50: > 91.2 µM (inactive)
[10]
  EC50: 3.76 µM (active)

## Cn1c(-c2ccc(N)cc2)nc2ccccc21
[11]
  AC50: 9.34 µM (active)

## Cc1ccc(N2C(=O)[C@@H]3[C@H](C2=O)C2c4ccccc4C=CN2[C@@H]3C(=O)c2ccco2)cc1 (stereo partly drawn)
Caspase-3
  IC50: 4.41 µM (active)
[12]
  IC50: 5.38 µM (active)
[13]
  IC50: > 66 µM (inactive)
[14]
  IC50: > 66 µM (inactive)
[15]
  IC50: 0.785 µM (active)

## C/C(=N\NC(=S)N1CCN(C2CCCCCC2)CC1)c1ccccn1
P388/ADR
  GI50: < 0.01 µM (active)
SN12K1
  GI50: 0.01 µM (active)
[16]
  AbsAC35: 162.11 µM
P388
  GI50: < 0.01 µM (active)

## COC(=O)C1=C/C=C\CN(C(c2ccccc2)c2ccccc2)/C=C\1C(=O)OC
[17]
  IC50: 5.7 µM (active)
[18]
  IC50: > 20 µM (inactive)
[19]
  EC50: > 53 µM (inactive)
